This is an account of results in PubChem BioAssay (NCI).

Common to all, as to test: NCI tumour cell line growth inhibition, 48 h
Test [1] concerns HCT-15 colon.
Test [2] concerns IGROV1 ovarian.
Test [3] relates to U251 CNS.
For test [4], the system named is SK-MEL-5 melanoma.
In test [5] the test system is A498 renal.
In test [6] the test system is SF-268 CNS.
Test [7] relates to SK-MEL-28 melanoma.
Test [8] relates to SNB-75 CNS.
Test [9] has as its system DU-145 prostate.
Test [10] has as its system K-562 leukemia.

SMILES strings stand for the structures.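 Exposure lasted 48 hours, with cells grown in 96-well plates and compounds tested at five concentrations. Here, GI50 denotes the concentration required for 50% inhibition of growth. The concentration for full growth arrest is given as TGI.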 Some results are limits rather than exact numbers.

Turning to `COc1cc(N2CCC(N)CC2)ccc1Nc1ncc(Cl)c(-c2c[nH]c3ccccc23)n1`, the GI50 in [1] is 0.323 µM; in test [2], 0.405 µM; in [3] it was 0.407 µM; in test [4], 1.49 µM; in test [5] it was 0.123 µM; in [6], 0.846 µM. For the same compound, the GI50 in test [7] was 1.31 µM; in [8], 0.417 µM; in test [9], 0.34 µM; in test [10] it was 1.58 µM. In addition, the TGI came to 1.96 µM in test [1]; 2.23 µM in [2]; 1.79 µM in test [3]; 2.84 µM in test [4]; 0.386 µM in test [5]; 3.35 µM in test [6]. The TGI in test [7] was 2.64 µM; in [8], 1.97 µM; in [9], 1.88 µM; in test [10], 5.03 µM.
As to `COC(=O)c1cccc(NC(=O)c2ccc(NC3=C(Cl)C(=O)N(Cc4ccccc4)C3=O)cc2)c1`, the GI50 in [1] was 2.29 µM; in test [2], 0.176 µM; in test [3], 12.7 µM; in test [4], 16.5 µM; in [5], 26.3 µM; in test [6], 23 µM. The GI50 in [7] was 15.2 µM; in test [8], 18.3 µM; in test [9], 7.9 µM; in [10] it was 21.3 µM. Also, the TGI is 17.5 µM in test [1]; 3.34 µM in test [2]; 28.3 µM in [3]; 34 µM in test [4]; 73 µM in test [5]; 54.9 µM in test [6]. Besides, the TGI in [7] worked out at 52 µM; in test [8], 62.6 µM; in [9] it was 25.2 µM; in [10], 52.7 µM.
As for `Cn1c(=O)c(Oc2ccc(F)cc2F)cc2cnc(NCC(C)(C)O)nc21`, the GI50 in test [1], in test [2], in [3], in test [4], in test [5] and in test [6] was above 25 µM in each case. The GI50 in test [7], in [8], in [9] and in [10] was above 25 µM in each case. Also, the TGI in test [1], in test [2], in test [3], in [4], in [5] and in test [6] was above 25 µM each time. Also, the TGI in test [7], in test [8], in test [9] and in test [10] was above 25 µM throughout.
For `CC[C@@H](C)/C=C(C)/C=C/C(=O)c1c(O)c(-c2ccc(O)cc2)cn(OC2CC(=O)CCC(C)OC(=O)CC2O)c1=O` (stereo not given in full), the GI50 is 0.145 µM in [1]; 0.316 µM in test [2]; 0.373 µM in test [3]; 0.271 µM in test [4]; 1.98 µM in test [5]; 0.282 µM in test [6]. In addition, the GI50 was 0.552 µM in test [7], 1.07 µM in test [8], 0.303 µM in test [9] and 0.386 µM in test [10]. Moreover, the TGI in test [1] was 15.8 µM; in test [2], 4.66 µM; in [3] it was 12.5 µM; in test [4] it was 0.978 µM; in test [5] it was 24 µM; in [6], 9.39 µM. Besides, the TGI in test [7] was 19.5 µM; in test [8], 19.3 µM; in test [9], 13.4 µM; in [10], above 47.9 µM.
As to `Cc1c(Cl)c(C)c(Cl)c(O)c1Cl`, the TGI in test [1] was 75.6 µM; in [2] it was above 100 µM; in test [3] it was 37.7 µM; in [4], 35.9 µM; in test [5], 68.7 µM; in test [6], above 100 µM. Moreover, the TGI was above 100 µM in test [7], above 100 µM in [8], above 100 µM in test [9] and 46.3 µM in test [10].
Regarding `Nc1c(C(=O)Nc2cccc(C(F)(F)F)c2)sc2nc3c(cc12)CCCCCC3`, the GI50 in test [1] is 2.63 µM; in test [3], 2.58 µM; in [4] it was 2.15 µM; in test [5], 1.39 µM; in test [6], 2.36 µM; in [7], 3.36 µM. In addition, the results for the GI50 in test [8], in test [9] and in [10] were 1.73 µM, 2.65 µM and 3.65 µM, respectively. For the same compound, the TGI in test [1] stood at 15.3 µM; in test [3], 10.5 µM; in test [4] it was 15 µM; in [5], 5.51 µM; in test [6], 6.77 µM; in test [7] it was 15.9 µM. Also, the TGI in test [8] came out at 3.47 µM; in test [9] it was 10.2 µM; in [10], 20 µM.
Regarding `COc1cc2c(cc1[N+](=O)[O-])C(=O)C(Br)(Br)CCC2`, the TGI in [1] was 3.67 µM; in test [2], 2.93 µM; in test [3] it was 9.04 µM; in [4], 3.77 µM; in test [5], 28.6 µM; in [6] it was 15.6 µM. For the same compound, the values for the TGI in test [8], in [9] and in test [10] were 25.8 µM, 25.8 µM and 6.27 µM, respectively.
`COC(=O)Nc1nc2ccc(C(=O)c3ccc(F)cc3)cc2[nH]1`: the GI50 was 0.0909 µM in test [1]; 0.513 µM in test [2]; 0.287 µM in test [3]; 0.242 µM in [4]; 0.403 µM in test [5]; 0.644 µM in [6]. The values for the GI50 in test [7], in test [8] and in [9] were 0.556 µM, 0.205 µM and 0.298 µM, respectively. Also, the TGI is above 100 µM in test [1]; above 66.1 µM in test [2]; 6.68 µM in [3]; above 24.2 µM in [4]; 4.47 µM in [5]; 7.65 µM in [6]. Moreover, the TGI in [7] is above 100 µM; in test [8], 12.4 µM; in [9], 0.858 µM.
